Results published in patent US5773464A, “C-10 epoxy taxanes” (Bristol-Myers Squibb Company, priority 1997, dated 1998).
Where two headings read alike, the source gives them in different places.

System: HCT-116 human colon carcinoma cells
Assay: Cytotoxicity assay (MTS), 72 hour exposure
Type: cell-based
Conditions: HCT-116, 72 h, read-out: Cytotoxicity Assay IC50 (nM) against HCT 116 Human colon tumor cell line
Method: Cytoxicity was assessed in HCT-116 human colon carcinoma cells by MTS (3-(4,5-dimethylthiazol-2-yl)-5-(3-carboxymethoxyphenyl)-2-(4-sulphenyl)-2H-tetrazolium, inner salt) assay as reported in T. L. Riss, et. al., "Comparison of MTT, XTT, and a novel tetrazolium compound MTS for in vitro proliferation and chemosensitivity assays.," Mol. Biol. Cell 3 (Suppl.):184a, 1992. Cells were plated at 4,000 cell/well in 96 well microtiter plates and 24 hours later drugs were added and serial diluted. The cells were incubated at 37° form 72 hours at which time the tetrazolium dye, MTS at 333 μg/ml (final concentration), in combination with the electron coupling agent phenazine methosulfate at 25 μM (final concentration) was added. A dehydrogenase enzyme in live cells reduces the MTS to a form that absorbs light at […] which can be quantitated spectrophotometrically. The greater the absorbance the greater the number of live cells. The results are expressed as an IC50, which is the drug concentration required to inhibit cell proliferation (i.e. absorbance at 450 nm) to 50% of that of untreated control cells. The IC50 values for compounds evaluated in this assay are evaluated in Table I.
^1 Cytoxicity was determined after a 72 hour exposure by MTS assay.

[1] = 72 hour exposure, MTS assay, test comparing Ie with paclitaxel, run on a different day

| SMILES | IC50 [nM] | IC50 [1] [nM] | IC50 (72 hour exposure, MTS assay, test comparing Ia with paclitaxel) [nM] |
| --- | --- | --- | --- |
| CC(=O)O[C@@]12CO[C@@H]1C[C@H](O)[C@@]1(C)C(=O)C3(CO3)C3=C(C)[C@@H](OC(=O)[C@H](O)[C@@H](NC(=O)c4ccccc4)c4ccccc4)C[C@@](O)([C@@H](OC(=O)c4ccccc4)[C@H]21)C3(C)C (stereo partly shown) [Compound Ia] | 2 | – | – |
| COCO[C@H]1C[C@H]2OC[C@@]2(OC(C)=O)[C@H]2[C@H](OC(=O)c3ccccc3)[C@]3(O)C[C@H](OC(=O)[C@H](O)[C@@H](NC(=O)c4ccccc4)c4ccccc4)C(C)=C(C4(CO4)C(=O)[C@]12C)C3(C)C (stereo partly shown) [Compound Ie] | – | 1.5 | – |
| CC(=O)O[C@H]1C(=O)[C@@]2(C)[C@H]([C@H](OC(=O)c3ccccc3)[C@]3(O)C[C@H](OC(=O)[C@H](O)[C@@H](NC(=O)c4ccccc4)c4ccccc4)C(C)=C1C3(C)C)[C@]1(OC(C)=O)CO[C@@H]1C[C@@H]2O [paclitaxel] | – | 1 | 2.9 |
